These results are taken from patent US11485714B2, “Hydroxyethylamine-based piperazine compounds, and methods of producing and using the same for treating disease” (National Institute of Immunology, priority 2020, dated 2022).

What all share (assay type): cell-based
Test [1] deals with P. falciparum CQ-sensitive (Pf3D7). Briefly: SYBR Green I assay, asynchronous cultures, CQ-sensitive clone. The following applies: Plasmodium falciparum, read-out: Pf3D7 IC50, nM (±SD). As for the experimental part:
Initially, antimalarial activity of Compound I was assessed on asynchronous cultures of P. falciparum sensitive (Pf3D7) clone using the SYBR Green assay. […] DMSO was used as a vehicle control, CQ (Chloroquine), DOX (Doxycycline) and DHA (Dihydroartemisinin).

In test [2] the test system is P. falciparum CQ-resistant (PfDd2). Briefly: SYBR Green I assay, asynchronous cultures, CQ-resistant clone. The conditions noted are these: Plasmodium falciparum, read-out: PfDd2 IC50, nM (±SD).
The test system of test [3] is Field isolates from Kenya (P. falciparum infected blood). Briefly: Screening against freshly collected field isolates. The following applies: Plasmodium falciparum, read-out: Field isolates from Kenya IC50, nM (±SD).
The mark [4] stands for this setting: asynchronous cultures, 37° C., 72 hours, SYBR Green I.

Where two headings read alike, the source gives them in different places.

Take `C[C@H]1[C@@H](O)O[C@@H]2O[C@@]3(C)CC[C@H]4[C@H](C)CC[C@@H]1[C@@]24OO3` [Dihydroartemisinin, reference compound]: the half-maximal inhibitory concentration (IC50) (as a rule, the concentration that inhibits the measured activity by half) in test [1] (setting [4]) was determined as 27 nM; in test [2] (setting [4]), 46 nM; in test [3] (Table 1), 7.37 nM.

For the molecule `CCN(CC)CCCC(C)Nc1ccnc2cc(Cl)ccc12` (stereo not drawn) [Chloroquine, reference compound], the IC50 in test [1] (72 h) was determined as 32.3 nM; in test [2] (72 h), 137 nM; in test [3], 75.2 nM.
